Experimental data reported in patent publication US20020061599A1, “Method of identifying ligands of biological target molecules” (priority 1999, published 2002).
Entries after “also recorded” stand apart in the source; their conditions may differ. Blank lines part the entries; values can stand above or below the compound they belong to.

Tests used:
Factor VIIa (FVIIa) = molecular target: T1, Factor VIIa (FVIIa) (Homo sapiens, UniProt P08709); test: Amidolytic activity of Factor VIIa; assay type: biochemical; conditions: for effect on the activity of FVIIa: chelator without metal-ions
T1 construct: Factor VIIa, i.e. the active form of the FVII protease involved in the coagulation cascade; purchased American Diagnostica
T1 sequence (P08709 213-466 limits assumed): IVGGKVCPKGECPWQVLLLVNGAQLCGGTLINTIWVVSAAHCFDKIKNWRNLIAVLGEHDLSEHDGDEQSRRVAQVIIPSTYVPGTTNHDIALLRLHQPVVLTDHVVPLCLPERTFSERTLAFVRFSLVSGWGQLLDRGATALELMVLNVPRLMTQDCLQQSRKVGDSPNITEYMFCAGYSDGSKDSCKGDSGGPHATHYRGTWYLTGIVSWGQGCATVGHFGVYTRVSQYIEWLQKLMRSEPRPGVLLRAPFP
T1 sequence (P08709 61-212 partner limits assumed): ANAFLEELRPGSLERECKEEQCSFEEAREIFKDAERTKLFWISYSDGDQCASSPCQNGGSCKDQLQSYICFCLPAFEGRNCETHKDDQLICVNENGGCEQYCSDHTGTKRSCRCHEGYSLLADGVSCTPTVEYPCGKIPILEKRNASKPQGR
Protocol: Method—The amidolytic activity of Factor VIIa (FVIIa) was measured by the incubation of 2.5 μl FVIIa (100 nM final concentration, obtained from American Diagnostica), 2.5 μl ligand and 4 μl substrate (10 mM, S2288 obtained from Chromogenix) in 42.5 μl buffer (50 mM Hepes pH 7.4, 1 mM CaCl2, 100 mM NaCl, 0,02% Tween 20). The assay was performed in 96-well plates (Costar). Incubation was performed at room temperature for five hours with absorbance read every 10 minutes.

[1] = molecular target: T2, NK1 receptor [HisIII:08;CysVII:06] (Homo sapiens, UniProt P25103, M291C/P112H); test: Competition binding with [125I]-Substance P, NK1 receptor [HisIII:08;CysVII:06] site; conditions: all in complex with Zn(II)
T2 construct: expressed in transfected cells; host or cells: COS-7
Protocol: (§1) Binding of [^125I]-Substance P was analysed in COS-7 cells expressing NK1 receptor which have been engineered to bind the zinc metal-ion. Ligand binding is presented in competiton with the zinc metal-ion, the zinc-1,10-phenanthroline complex and with other zinc-chelator complexes as indicated. For structures of the chelators, see Appendix.

[2] = molecular target: T3, NK1 receptor [HisV:05,HisVI:24] (Homo sapiens, UniProt P25103, Y272H); test: Competition binding with [125I]-Substance P, NK1 receptor [HisV:05,HisVI:24] site; conditions: all in complex with Zn(II)
T3 construct: expressed in transfected cells; host or cells: COS-7
Protocol: as §1

galanin R1 receptor = molecular target: T4, galanin R1 receptor (Homo sapiens, UniProt P47211); test: Whole cell competition binding with [125I]-galanin in COS-7 cells expressing galanin receptor; conditions: for binding affinity compared with the basic chelator 1,10-phenanthroline: chelator in complex with Cu(II)
T4 construct: expressed in transfected cells; host or cells: COS-7
T4 sequence (P47211 1-349): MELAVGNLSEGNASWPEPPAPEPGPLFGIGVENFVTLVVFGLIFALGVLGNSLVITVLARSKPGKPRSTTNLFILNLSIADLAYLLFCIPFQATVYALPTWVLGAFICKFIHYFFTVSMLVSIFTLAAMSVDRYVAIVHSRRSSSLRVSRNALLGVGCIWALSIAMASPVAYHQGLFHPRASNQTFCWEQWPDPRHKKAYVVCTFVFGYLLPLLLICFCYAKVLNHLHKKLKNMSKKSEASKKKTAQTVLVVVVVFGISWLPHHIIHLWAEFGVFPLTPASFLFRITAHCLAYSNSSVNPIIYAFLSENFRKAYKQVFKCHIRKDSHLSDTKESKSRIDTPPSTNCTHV
Source text: Whole cell competition binding experiment with COS-7 cells expressing the wild type and mutant forms of the galanin receptor using [^125I]-galanin as radioligand.
Methods—The galanin receptor cDNA was introduced into COS-7 cells by the standard calcium phosphate transfection method. The cells were transferred and seeded in multi-well plates for assay one day following the transfection and the number of cells plated per well was adjusted for each individual (wild type and mutant) construct aiming at the binding of 5 to 10% of the radioligand present in the assay. Two days post-transfection the cells were assayed for the presence of [^125]-Galanin binding activity. Radioligand was bound in buffer composed of 25 mM Hepes (pH 7.4), 2.5 mM MgCl2, […] Baciacin and displaced in a dose dependent manner by unlabelled ligand. The assay was performed in triplicate for 3 hours at 4° C., and terminated by the addition of lysis buffer (48% urea, 2% NP-40 in 3M acetic acid). The concentration of radioligand in the assay corresponds to a final concentration of 20 pM.

[3] = molecular target: T5, leukotriene LTB4 receptor (Homo sapiens, UniProt Q15722); test: Whole cell competition binding with [3H]-LTB4 in COS-7 cells expressing wild type LTB4 receptor
T5 construct: expressed in transfected cells; host or cells: COS-7
Source text: Whole cell competition binding experiment with COS-7 cells expressing the wild type and mutant variants of the leukotriene LTB4 receptor using [^3H]-LTB4 as the radioligand.
Methods—The leukotriene LTB4 receptor cDNA was cloned by PCR from a leukocyte cDNA library, built into an eukaryotic expression vector and introduced into COS-7 cells by a standard calcium phosphate transfection method. One day after transfection the cells were transferred and seeded in multi-well plates for assay. The number of cells plated per well was chosen so as to obtain 5 to 10% binding of the radioligand added. Two days after transfection the cells were assayed for the presence of [^3H]-LTB4 binding activity. […] The assay was performed in duplicate for 3 hours at 4° C., and stopped by washing twice in buffer. Cell associated, receptor bound radioligand was determined by the addition of lysis buffer (48% urea, 2% NP-40 in 3M acetic acid).

[4] = molecular target: T6, [H193K] dopamine transporter (Homo sapiens, UniProt Q01959, H193K); test: [3H]-dopamine uptake in COS-7 cells, [H193K] mutant dopamine transporter; assay type: cell-based; conditions: mutational substitution of His193; chelator in complex with Zn(II)
T6 construct: expressed in transfected cells; host or cells: COS-7
Protocol: Panel B. Dopamine uptake analysis in a mutant form of the dopamine transporter, [H193K], in which binding of the metal-ion complex has been eliminated (Noregaard et al. EMBO J. (1998) 17: 4266-4273).
(§2) Methods—The dopamine transporter cDNA was introduced into COS-7 by the standard calcium phosphate transfection method. Two days post-transfection the cells were assayed for [^3H]-Dopamine uptake activity. The uptake assays was performed in 25 mM Hepes pH 7.4, 120 mM NaCl, 5 mM KCl, 1.2 mM CaCl2, 1.2 mM MgSO4, 1 mM ascorbic acid and 5 mM D-glucose and in the presence of various concentrations of unlabelled dopamine as indicated in the figures. The assay was performed in triplicate at 37° C. for 10 minutes, and terminated by washing with buffer twice and the addition of lysis buffer (48% urea, 2% NP-40 in 3M acetic acid).

dopamine transporter = molecular target: T7, dopamine transporter (Homo sapiens, UniProt Q01959); test: [3H]-dopamine uptake in COS-7 cells expressing wild-type dopamine transporter; assay type: cell-based; conditions: for effect on dopamine transport: chelator by itself, without metal-ion
T7 construct: expressed in transfected cells; host or cells: COS-7
Protocol: Competition analysis of uptake of [^3H]-dopamine in whole COS-7 cells expressing the dopamine transporter.
as §2

[5] = system: metal-ion site engineered tachykinin NK1 receptors; test: Competition binding with [125I]-Substance P, library of inter-helical metal-ion sites engineered into NK1 receptor; conditions: sites between TM-III and -V and between TM-V and -VI
Protocol: COS-7 cells expressing various engineered forms of the NK1 receptor were analyzed by competition binding using [^125I]-Substance P as radioligand

T5 sequence (Q15722 whole entry): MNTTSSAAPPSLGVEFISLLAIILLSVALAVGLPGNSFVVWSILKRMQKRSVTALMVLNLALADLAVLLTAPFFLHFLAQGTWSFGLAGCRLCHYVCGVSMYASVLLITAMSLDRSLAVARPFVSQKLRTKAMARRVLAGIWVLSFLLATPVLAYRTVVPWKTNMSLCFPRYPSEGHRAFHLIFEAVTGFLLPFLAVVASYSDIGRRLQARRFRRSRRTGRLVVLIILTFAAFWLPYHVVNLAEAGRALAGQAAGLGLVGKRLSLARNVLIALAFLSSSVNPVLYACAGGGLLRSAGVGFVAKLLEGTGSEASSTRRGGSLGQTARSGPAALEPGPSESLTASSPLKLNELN
T3 sequence (P25103 whole entry Y272H): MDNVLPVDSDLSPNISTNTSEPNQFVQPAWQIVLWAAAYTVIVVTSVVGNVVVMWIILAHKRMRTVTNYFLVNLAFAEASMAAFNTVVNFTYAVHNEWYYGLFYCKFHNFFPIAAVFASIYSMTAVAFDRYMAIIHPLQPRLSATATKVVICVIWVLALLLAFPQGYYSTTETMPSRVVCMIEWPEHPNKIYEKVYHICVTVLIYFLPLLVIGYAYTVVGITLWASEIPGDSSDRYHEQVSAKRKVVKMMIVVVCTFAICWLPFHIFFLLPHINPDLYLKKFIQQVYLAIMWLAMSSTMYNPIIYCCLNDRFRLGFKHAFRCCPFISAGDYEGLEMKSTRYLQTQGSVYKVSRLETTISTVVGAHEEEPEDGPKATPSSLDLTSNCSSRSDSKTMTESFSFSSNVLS
T2 sequence (P25103 whole entry P112H/M291C): as the sequence (P25103 whole entry Y272H) above, with P112H, H272Y, M291C counted along it
T7 sequence (Q01959 whole entry): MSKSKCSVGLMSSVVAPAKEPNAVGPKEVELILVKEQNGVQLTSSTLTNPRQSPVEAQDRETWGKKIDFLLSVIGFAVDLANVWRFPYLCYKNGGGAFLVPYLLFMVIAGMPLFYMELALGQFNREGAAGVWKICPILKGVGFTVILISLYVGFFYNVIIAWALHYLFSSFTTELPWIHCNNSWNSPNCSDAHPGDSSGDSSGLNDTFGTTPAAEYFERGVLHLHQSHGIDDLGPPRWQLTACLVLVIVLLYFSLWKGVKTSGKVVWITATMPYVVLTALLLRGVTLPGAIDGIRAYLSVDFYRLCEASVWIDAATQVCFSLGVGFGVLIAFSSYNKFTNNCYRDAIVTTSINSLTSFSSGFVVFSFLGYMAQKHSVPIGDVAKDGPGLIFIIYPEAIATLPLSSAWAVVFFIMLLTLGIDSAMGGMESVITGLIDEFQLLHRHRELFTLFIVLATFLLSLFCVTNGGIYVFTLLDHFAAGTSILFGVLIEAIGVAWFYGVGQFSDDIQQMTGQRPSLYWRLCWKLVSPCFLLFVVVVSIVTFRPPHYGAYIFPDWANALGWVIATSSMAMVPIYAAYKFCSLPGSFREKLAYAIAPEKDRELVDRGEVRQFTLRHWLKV
T6 sequence (Q01959 whole entry H193K): as the sequence (Q01959 whole entry) above, with H193K counted along it

SMILES: Cc1cc2cccnc2c2ncccc12 [compound 176, 5-methyl-1,10-phenanthroline]
binding affinity compared with the basic chelator 1,10-phenanthroline (galanin R1 receptor): increase the binding affinity

SMILES: c1cnc2c(c1)ccc1cccnc12 [1,10-phenanthroline, reference compound]
effect on the activity of FVIIa (Factor VIIa (FVIIa)): no effect | effect on [125I]-galanin binding (galanin R1 receptor; chelator alone, without metal-ion): no effect

SMILES: CC(=O)O/N=C(\N)c1ccccn1 [compound 210, 2-pyridylamidoxime, O-acetyl]
effect of the metal-ion chelator complex on dopamine transport [4]: eliminated | effect on dopamine transport (dopamine transporter): does not affect | potency of blocking dopamine transport, fold higher than free Zn(II) (dopamine transporter; chelator in complex with Zn(II), mono-component): approx 10 fold

SMILES: [Cl][Cu][Cl] [Cu(II), reference compound]
Hill coefficient (galanin R1 receptor; displacement of [125I]-galanin): −4 | increase in affinity versus wild-type [5]: no increase or just a marginal increase in affinity | IC50 ([3]; wild type receptor, whole COS-7 cells, read-out: IC50, displacement of [3H]-LTB4): 70 µM

SMILES: c1ccc(-c2ccccn2)nc1 [2,2′-bipyridine, reference compound]
effect on the activity of FVIIa (Factor VIIa (FVIIa)): no effect | effect on dopamine transport (dopamine transporter): no effect

More lines, main results first:

potency of inhibiting FVIIa compared with the basic chelator complex (Factor VIIa (FVIIa); chelator in complex with Zn(II)): increased potency | binding compared with 1,10′-phenanthroline [1]: almost similar | binding, fold better than 1,10-phenanthroline [2]: 6 fold
SMILES: ClC(Cl)(Cl)c1ccc2ccc3ccc(C(Cl)(Cl)Cl)nc3c2n1 [compound 135, 2,9-bis(trichloromethyl)-1,10-phenanthroline]

potency, fold more potent than phenanthroline [1]: 7 fold | binding affinity compared with the basic chelator 1,10-phenanthroline (galanin R1 receptor): bound like 1,10′-phenanthroline | potency compared with phenanthroline [2]: only slightly more potent
SMILES: c1ccc(-c2cc3cccnc3c3ncccc23)cc1 [compound 134, 5-phenyl-1,10-phenanthroline]
binding of the metal-ion chelator complex compared with 1,10-phenanthroline ([3]; chelator in complex with Cu(II)): entirely eliminated the binding; also recorded: totally inactive

binding compared with 1,10′-phenanthroline [1]: almost similar | binding, fold better than 1,10-phenanthroline [2]: 10 fold
SMILES: O=C1C(=O)c2cccnc2-c2ncccc21 [compound 175, 1,10-phenanthroline-5,6-dione]

binding affinity compared with the basic chelator 1,10-phenanthroline (galanin R1 receptor): decrease the affinity
SMILES: OCc1ccc2ccc3ccc(CO)nc3c2n1 [compound 133, 2,9-dimethanol-1,10-phenanthroline]
